Test results from patent US9434741B2, “Thieno[2,3-d]pyrimidine derivatives, preparation method and use thereof” (FUJIAN INSTITUTE OF RESEARCH ON THE STRUCTURE OF MATTER, …, priority 2012, dated 2016).

Tests used:
[1] = test system: human lung cancer cell lines (A549); assay: SRB screening of inhibitory activity against human lung cancer cell lines (A549); type: cell-based; conditions: A549 cells, compound concentration 1×10^−4 M, SRB method; for inhibition at 100 µM: Homo sapiens, 72 h, read-out: Inhibitory ratio (%)
Description: (§1) The inhibitory activity against colon cancer cell lines (HCT-116) and human lung cancer cell lines (A549) were screened with an SRB method. The procedure of screening was described in the reference (Li M. H., Miao Z. H., Tan W. F. et al. Clin. Cancer Res. 2004, 10(24): 8266-8274).
(§2) Detailed experimental procedure is as follows:
(§3) (1) According to the growth rate of tumor cells, colon cancer cell lines (HCT-116) in logarithmic growth phase were inoculated in 96-well culture plates and allowed to adhere to the wall for 24 h. The medicants with a concentration of 1×10^−4 M were added. Three replicate wells were set for the concentration, and saline control and non-apoptotic well of the corresponding concentration were set. The tumor/cancer cells were incubated for 72 hours at 37 in 5% CO2; (2) the plates were taken out, and the cells were fixed in each well with 10% cold […] (TCA) solution at 4 for 1 hour; (3) the fixation fluid was removed, and the plates were rinsed 5 times with distilled water and naturally dried in air; (4) SRB solution prepared from glacial acetic acid (1%) was added to stain at room temperature for 15 min; (5) the supernatant was removed, and the residue was washed 5 times with 1% acetic acid and air-dried; (6) finally Tris solution was added and the plates were shaken on a plate shaker for 5 min. Absorbance value at 560 nm (A560) was determined by using a wavelength-tunable microplate reader. Enzyme inhibitory ratio was calculated with the following formula: […]
(§4) The activities of the compounds represented by formula (I) or salts thereof of inhibiting colon cancer cell lines (HCT-116) and human lung cancer cell lines A549 at a concentration of 1×10^−4 M were determined.

[2] = test system: colon cancer cell lines (HCT-116); assay: SRB screening of inhibitory activity against colon cancer cell lines (HCT-116); type: cell-based; conditions: HCT-116 cells, compound concentration 1×10^−4 M, 72 hours incubation, SRB method, A560; for inhibition at 100 µM: Homo sapiens, read-out: Inhibitory ratio (%)
Description: as §1, §2, §3, §4

Row | SMILES | inhibition at 100 µM [1] [%] | inhibition at 100 µM [2] [%] | also measured
1 | Cc1csc2ncnc(OCc3cc(-c4ccccc4)no3)c12 [Compound S-1, 5-methyl-4-((3-phenyl-isoxazol-5-yl)-methoxy-)-thieno[2,3-d]pyrimidine] | 85 | – | –
2 | Cc1ccc(-c2cc(COc3ncnc4scc(C)c34)on2)cc1 [Compound S-2] | 80 | – | –
3 | COc1ccc(-c2cc(COc3ncnc4scc(C)c34)on2)cc1 [Compound S-3] | 86.4 | 70 | Inhibitory ratio (%) [2]: 70.0%
4 | Cc1csc2ncnc(OCc3cc(-c4ccc(Cl)cc4)no3)c12 [Compound S-5] | 80.8 | – | –
5 | Cc1csc2ncnc(OCc3cc(-c4ccccc4Cl)no3)c12 [Compound S-6] | 75.6 | – | –
6 | Cc1csc2ncnc(OCc3cc(-c4ccc(Br)cc4)no3)c12 [Compound S-8] | 85.9 | – | –
7 | CCc1cc2c(OCc3cc(-c4ccc(OC)cc4)no3)ncnc2s1 [Compound S-83] | 89.4 | 69.6 | –
8 | CCc1cc2c(OCc3cc(-c4ccc(Cl)cc4Cl)no3)ncnc2s1 [Compound S-87] | – | 72.7 | –
9 | CCc1cc2c(OCc3cc(-c4ccc(Br)cc4)no3)ncnc2s1 [Compound S-88] | – | 60.9 | –
10 | Cc1sc2ncnc(OCc3cc(-c4ccccc4)no3)c2c1C [Compound S-101] | 88 | 68.8 | Inhibitory ratio (%) [1]: 88.0%
11 | Cc1ccc(-c2cc(COc3ncnc4sc(C)c(C)c34)on2)cc1 [Compound S-102] | – | 62.9 | –
12 | COc1ccc(-c2cc(COc3ncnc4sc(C)c(C)c34)on2)cc1 [Compound S-103] | – | 71.1 | –
13 | Cc1sc2ncnc(OCc3cc(-c4ccccc4Cl)no3)c2c1C [Compound S-106] | 71.6 | – | –
14 | Cc1sc2ncnc(OCc3cc(-c4ccc(Cl)cc4Cl)no3)c2c1C [Compound S-107] | – | 72.9 | –
15 | c1ccc(-c2cc(COc3ncnc4sc5c(c34)CCCC5)on2)cc1 [Compound S-121] | 54.1 | – | –
